Biological target: Lp(a) assembly in HepG2 cells overexpressing ApoA protein (Homo sapiens (Human), UniProt P08519)
Experiment: ELISA assay on screening Lp(a) assembly inhibition
Type: cell-based
Conditions: HepG2 cells overexpressing ApoA protein, 24 h, ELISA of supernatant
Experimental: Test Example 1 and Methods of ELISA Assay on Screening Lp(a) Assembly Inhibition
• 1) Preheated the culture media, DPBS, and pancreatin in a 37° C. water bath in advance. • 2) Digested cells with pancreatin, transferred the cell suspension to a 15 mL centrifuge tube, and centrifuged at 1000 rpm for 5 min. • 3) Resuspended the cells with culture media and transferred the cell suspension to a new T75 cell culture flask. • 4) Cultured at 37° C. in a 5% CO2 incubator.
• 1) Seeded HepG2 cells overexpressing of ApoA protein into a 96-well plate at 100 μL per well and incubated overnight for attachment. • 2) Replaced with fresh culture media the next day, then added diluted compounds, and cultured the cell plate in a 5% CO2, 37° C. incubator for 24 h.
• 1) Added 10 μL of 1.5 M EACA to each well. • 2) Centrifuged at 1000 rpm for 1 min, and transferred 100 μL of cell culture supernatant to a pre-coated ELISA plate.
• 1) Added 100 μL of capture antibody to each well of a pre-coated ELISA plate and incubated overnight at 25° C. • 2) Added 300 μL of washing solution to each well and washed 5 times for 1 min each time. • 3) Added 100 μL of blocking solution to each well and incubated at 25° C. for 2 h. • 4) Added 300 μL of washing solution to each well and washed 5 times for 1 min each time. • 5) Added 100 μL of sample to each well and incubated at 25° C. for 1 h. • 6) Added 300 μL of washing solution to each well and washed 5 times for 1 min each time. • 7) Added 100 μL of detection antibody to each well and incubated at 25° C. for 1 h. • 8) Added 300 μL of washing solution to each well and washed 5 times for 1 min each time. • 9) Added 100 μL substrate solution (Color Reagent A: Color Reagent B, 1:1) to each well and incubated for 20 min at 25° C. in the dark. • 10) Added […] of stop solution to each well, gently blowed and sucked several times with the pipette tip, and read within 5 min.
[formula] • X: cpd concentration • Y: inhibition % • Top and Bottom: Plateaus in same units as Y • log IC50: same log units as X • HillSlope: Slope factor or Hill slope

Chain of Lp(a) assembly in HepG2 cells overexpressing ApoA protein (P08519 20-2040): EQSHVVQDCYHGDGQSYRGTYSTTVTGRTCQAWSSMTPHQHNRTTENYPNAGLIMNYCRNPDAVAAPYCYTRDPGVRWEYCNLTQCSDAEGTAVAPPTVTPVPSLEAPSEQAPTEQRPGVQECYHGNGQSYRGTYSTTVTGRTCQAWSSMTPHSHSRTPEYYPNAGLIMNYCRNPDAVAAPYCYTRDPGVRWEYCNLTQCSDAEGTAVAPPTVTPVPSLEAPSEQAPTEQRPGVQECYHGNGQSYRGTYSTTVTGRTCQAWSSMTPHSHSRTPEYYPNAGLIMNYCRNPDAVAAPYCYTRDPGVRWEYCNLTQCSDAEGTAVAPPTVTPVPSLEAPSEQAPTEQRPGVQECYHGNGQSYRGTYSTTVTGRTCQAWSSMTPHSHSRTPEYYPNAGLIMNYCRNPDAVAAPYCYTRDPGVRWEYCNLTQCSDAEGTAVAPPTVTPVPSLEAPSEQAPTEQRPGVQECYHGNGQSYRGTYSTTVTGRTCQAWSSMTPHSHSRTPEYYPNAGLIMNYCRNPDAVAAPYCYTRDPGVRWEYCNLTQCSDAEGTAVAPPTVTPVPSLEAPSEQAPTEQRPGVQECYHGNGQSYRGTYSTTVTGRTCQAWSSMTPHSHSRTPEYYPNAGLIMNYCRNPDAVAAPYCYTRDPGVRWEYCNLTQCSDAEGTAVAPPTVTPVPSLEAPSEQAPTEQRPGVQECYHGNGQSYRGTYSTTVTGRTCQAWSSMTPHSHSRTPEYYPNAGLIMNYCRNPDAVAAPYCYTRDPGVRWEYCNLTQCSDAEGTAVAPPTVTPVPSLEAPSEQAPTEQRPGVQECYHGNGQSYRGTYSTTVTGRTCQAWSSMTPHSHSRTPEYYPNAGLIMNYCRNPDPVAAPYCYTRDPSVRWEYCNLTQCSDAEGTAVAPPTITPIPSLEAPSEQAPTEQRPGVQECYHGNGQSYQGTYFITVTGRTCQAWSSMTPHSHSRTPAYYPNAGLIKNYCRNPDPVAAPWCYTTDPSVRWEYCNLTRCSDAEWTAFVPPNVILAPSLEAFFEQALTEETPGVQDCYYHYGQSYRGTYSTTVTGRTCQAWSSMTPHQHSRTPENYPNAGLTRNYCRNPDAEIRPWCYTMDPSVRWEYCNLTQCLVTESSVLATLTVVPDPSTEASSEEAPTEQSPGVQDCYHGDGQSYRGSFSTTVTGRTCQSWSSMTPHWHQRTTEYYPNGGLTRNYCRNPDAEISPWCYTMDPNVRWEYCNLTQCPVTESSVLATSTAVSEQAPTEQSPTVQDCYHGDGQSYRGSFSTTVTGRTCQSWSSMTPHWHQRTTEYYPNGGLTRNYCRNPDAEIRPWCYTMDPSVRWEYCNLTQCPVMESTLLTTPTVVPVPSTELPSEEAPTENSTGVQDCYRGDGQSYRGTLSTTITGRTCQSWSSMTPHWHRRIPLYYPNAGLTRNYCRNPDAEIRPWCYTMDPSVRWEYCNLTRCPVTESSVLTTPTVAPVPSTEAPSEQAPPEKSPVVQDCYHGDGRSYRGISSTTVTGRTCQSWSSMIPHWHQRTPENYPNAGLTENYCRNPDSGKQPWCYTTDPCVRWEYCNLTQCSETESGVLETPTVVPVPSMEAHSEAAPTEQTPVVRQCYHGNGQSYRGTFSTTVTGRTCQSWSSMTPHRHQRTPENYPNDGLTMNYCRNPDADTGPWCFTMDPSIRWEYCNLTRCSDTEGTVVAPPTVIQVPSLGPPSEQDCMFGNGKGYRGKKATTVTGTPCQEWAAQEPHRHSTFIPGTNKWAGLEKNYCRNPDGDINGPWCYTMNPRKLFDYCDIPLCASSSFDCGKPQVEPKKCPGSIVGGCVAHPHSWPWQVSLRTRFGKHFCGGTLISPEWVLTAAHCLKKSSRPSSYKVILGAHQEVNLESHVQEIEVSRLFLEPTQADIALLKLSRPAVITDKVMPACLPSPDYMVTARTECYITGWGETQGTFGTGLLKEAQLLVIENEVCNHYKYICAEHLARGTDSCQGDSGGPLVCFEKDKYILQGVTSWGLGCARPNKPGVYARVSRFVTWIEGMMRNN

Compound | IC50 [nM]
O=C(O)[C@@H](Cc1csc2ccc(CN(Cc3ccc4scc(C[C@H](C(=O)O)[C@H]5CCNC5)c4c3)Cc3ccc4scc(C[C@H](C(=O)O)[C@H]5CCNC5)c4c3)cc12)[C@H]1CCNC1 [Compound 128, (2S,2′S,2″S)-3,3′,3″-((nitrilotris(methylene))tris(benzo[b]thiophene-5,3-diyl))tris(2-((R)-pyrrolidin-3-yl)propanoic acid)] | 1.34
O=C(O)[C@@H](Cc1cc2cc(CN(Cc3ccc4sc(C[C@H](C(=O)O)[C@H]5CCNC5)cc4c3)Cc3ccc4sc(C[C@H](C(=O)O)[C@H]5CCNC5)cc4c3)ccc2s1)[C@H]1CCNC1 [Compound 104, (2S,2′S,2″S)-3,3′,3″-((nitrilotris(methylene))tris(benzo[b]thiophene-5,2-diyl))tris(2-((R)-pyrrolidin-3-yl)propanoic acid)] | 1.04
O=C(Cc1cccc(C[C@H](C(=O)O)[C@H]2CCNC2)c1)NCCOc1cccc(C[C@H](C(=O)O)[C@H]2CCNC2)c1 [Compound 142, (S)-3-(3-(2-((2-(3-((S)-2-carboxy-2-((R)-pyrrolidin-3-yl)ethyl)phenoxy)ethyl)amino)-2-oxoethyl)phenyl)-2-((R)-pyrrolidin-3-yl)propanoic acid] | 3.19
O=C(O)[C@@H](Cc1ccc2scc(CN(Cc3csc4ccc(C[C@H](C(=O)O)[C@H]5CCNC5)cc34)Cc3csc4ccc(C[C@H](C(=O)O)[C@H]5CCNC5)cc34)c2c1)[C@H]1CCNC1 [Compound 49, (2S,2′S,2″S)-3,3′,3″-((nitrilotris(methylene))tris(benzo[b]thiophene-3,5-diyl))tris(2-((R)-pyrrolidin-3-yl)propanoic acid)] | 3.22

Next, values leading:

IC50 [nM] | Compound
1.17 | O=C(O)[C@@H](Cc1cccc(CN(Cc2cccc(C[C@H](C(=O)O)[C@H]3CCNC3)c2)C(=O)c2cc(F)cc(C[C@H](C(=O)O)[C@H]3CCNC3)c2)c1)[C@H]1CCNC1 [Compound 12, (2S,2′S)-3,3′-((((3-((S)-2-carboxy-2-((R)-pyrrolidin-3-yl)ethyl)-5-fluorobenzoyl)azanediyl)bis(methylene))bis(3,1-phenylene))bis(2-((R)-pyrrolidin-3-yl)propanoic acid)]
0.87 | O=C(O)[C@@H](Cc1cccc(CCN(CCc2cccc(C[C@H](C(=O)O)[C@H]3CCNC3)c2)CCc2cccc(C[C@H](C(=O)O)[C@H]3CCNC3)c2)c1)[C@H]1CCNC1 [Compound 65, (2S,2′S,2″S)-3,3′,3″-((nitrilotris(ethane-2,1-diyl))tris(benzene-3,1-diyl))tris(2-((R)-pyrrolidin-3-yl)propanoic acid)]
0.71 | O=C(O)[C@@H](Cc1cccc(CN(CCOc2cccc(C[C@H](C(=O)O)[C@H]3CCNC3)c2)C(=O)COc2cccc(C[C@H](C(=O)O)[C@H]3CCNC3)c2)c1)[C@H]1CCNC1 [Compound 135, (S)-3-(3-(2-((3-((S)-2-carboxy-2-((R)-pyrrolidin-3-yl)ethyl)benzyl)(2-(3-((S)-2-carboxy-2-((R)-pyrrolidin-3-yl)ethyl)phenoxy)ethyl)amino)-2-oxoethoxy)phenyl)-2-((R)-pyrrolidin-3-yl)propanoic acid]
0.85 | O=C(O)[C@@H](Cc1cccc(CCN(CCc2cccc(C[C@H](C(=O)O)[C@H]3CCNC3)c2)C(=O)COc2cccc(C[C@H](C(=O)O)[C@H]3CCNC3)c2)c1)[C@H]1CCNC1 [Compound 81, (2S,2′S)-3,3′-((((2-(3-((S)-2-carboxy-2-((R)-pyrrolidin-3-yl)ethyl)phenoxy)acetyl)azanediyl)bis(ethane-2,1-diyl))bis(3,1-phenylene))bis(2-((R)-pyrrolidin-3-yl)propanoic acid)]
2.91 | O=C(O)[C@@H](Cc1cncc(CC(=O)N(CCOc2cncc(C[C@H](C(=O)O)[C@H]3CCNC3)c2)Cc2cncc(C[C@H](C(=O)O)[C@H]3CCNC3)c2)c1)[C@H]1CCNC1 [Compound 153, (S)-3-(5-(2-(2-(5-((S)-2-carboxy-2-((R)-pyrrolidin-3-yl)ethyl)pyridin-3-yl)-N-((5-((S)-2-carboxy-2-((R)-pyrrolidin-3-yl)ethyl)pyridin-3-yl)methyl)acetamido)ethoxy)pyridin-3-yl)-2-((R)-pyrrolidin-3-yl)propanoic acid]

— patent US20250179055A1, “Substituted 2-(pyrrolidine-3-yl)acetic acid derivative, preparation method and use thereof” (INNOVSTONE THERAPEUTICS LIMITED, priority 2023, published 2025)
